Reference: PubChem BioAssay AID179 (DTP/NCI, 2004)
Activity calls are given as the source filed them.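 Rule for the calls: active = compounds giving half or more protection of infected cells from virus-caused growth loss, again on retest; inactive = the rest.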

Tested on: CEM cells HIV-1 protection, formazan growth assay
Assay: NCI AIDS Antiviral Assay
Conditions: for IC50: measured here: growth of uninfected CEM cells
How it was run: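 Human CEM cells, uninfected and HIV-1-infected, received five drug concentrations, and growth was read by soluble formazan assay. Compounds giving at least 50% protection were retested; reproducible 100% protection defined confirmed active.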

Structure (SMILES)	EC50 [µM]	IC50 [µM]	outcome
CCCCCCCCCCCC[N+]12CC[N+](CCN)(CC1)CC2	> 251	56.2	
Cc1occc1C(=S)Nc1ccc(Cl)c(/C=N/OC2CCCC2)c1	0.174	14.5	
O=c1c2cc(S(=O)(=O)Nc3c(Cl)cccc3Cl)ccc2ncn1NS(=O)(=O)c1ccc2ccccc2c1	> 200	37.2	
C1CN2C(=N1)N1CCN=C1N1CCN=C21	> 174	> 174	
CN1CCCNC(=S)C1			inactive
N#Cc1cccc(N2C(=O)c3ccc(C(=O)c4ccc5c(c4)C(=O)N(c4cccc(C#N)c4)C5=O)cc3C2=O)c1	> 7.24	> 7.24	
N#CC1(C#N)C(c2ccc(C3C(C#N)(C#N)C3(C#N)C#N)cc2)C1(C#N)C#N			inactive
Oc1c2c(c(O)c3ccccc13)C1(N=N2)c2ccccc2Oc2ccccc21			inactive
COC(=O)Cc1cc(=O)oc2c1C(=O)CCC2			inactive
CCOc1ccc(C2(C)OC(=O)C3CCCCC32)c2ccccc12 (configuration not stated)			inactive
CC(C)(C)C1=CC(=O)C(Cl)(C(C)(C)C)C(Cl)C1=O (configuration not stated)	> 20	1.15	
COc1ccc(-c2cc(-c3ccccc3)n(C3OC(COC(C)=O)C(OC(C)=O)C(OC(C)=O)C3OC(C)=O)c(=S)c2C#N)cc1 (configuration not stated)	> 166	32.4	
c1cc(CCSSCCc2ccncc2)ccn1	> 200	3.8	
COC(=O)C1=CCC(n2cnc3c(N)ncnc32)CC1 (configuration not stated)	> 912	110	
CCN(CC)C(=S)SS(=O)(=O)c1ccc(NC(C)=O)cc1	> 200	11	
CC(C)(C)C(=O)/C=C/c1cccc(F)c1			inactive
O=C1Cc2ccccc2N1/N=C\c1ccc([N+](=O)[O-])cc1	> 67.6	> 67.6	
CCOC(=O)C(CC#N)(NC(C)=O)C(=O)OCC	> 200	> 200	
Nc1ccc2c(c1)S(=O)(=O)c1cc(N)ccc1-2	> 200	> 200	
O=C(O)Cn1[se]c2ccccc2c1=O	46.8	120	
CC(C)(C)OC(=O)N1N=NC2C3OC(CC3=O)C21 (configuration not stated)	> 708	355	
CC1(C)C(=O)c2cc3ccccc3nc2-c2ccccc21	> 200	24.5	
CC(=O)C(=Cc1cccc(C#N)c1)C(C)=O	> 63.1	34.7	

Structure (SMILES)	EC50 [µM]	IC50 [µM]	outcome
COC(=O)c1c2c(cc3c1CC1(Cc4cc5c(c(C=O)c4C1)CCCC5)C3)CCCC2 (configuration not stated)	> 200	24.5	
O=C1ONN(c2ccccc2)/C1=C/N=Nc1ncnc2nc[nH]c12	162	> 200	
CCN=C1SC2C(=O)N(C)C(S1)C(=O)N2C	> 692	36.3	
NCCS/C=C/C(=O)OCc1ccc(Br)cc1	> 708	97.7	
Cc1ccc(SC(CCC(Sc2ccc(C)cc2)Sc2ccc(C)cc2)Sc2ccc(C)cc2)cc1			inactive
COC(=O)N[C@H](C(=O)NC(OCc1ccccc1)C1COC(C)(C)O1)C(C)O[Si](C)(C)C(C)(C)C (some centres not stated)	> 70.8	> 70.8	
CCOC(=O)/C(=C\c1cccc(F)c1)C(C)=O	> 398	182	
O=S(=O)(O)CCCCCO	> 200	> 200	
COc1ccc(/C=C(\C#N)c2ccccn2)cc1OC	> 200	50.1	
COc1cc2c(c(O)c1OC)C(=O)[C@@H]1CCC(=O)N1C2c1ccccc1 (some centres not stated)	> 200	83.2	
CN(C)C=Nc1nc(=O)n(C2CCC(CO)O2)cc1F (configuration not stated)	0.0676	95.5	
O=c1[nH]c2ccccc2nc1/C=C(\O)C(F)F	> 200	> 200	
C=CC[C@]12C=C(OC)[C@@H](O)[C@](OC)(C(c3cc(OC)c4c(c3)OCO4)[C@H]1C)[C@H]2OC(C)=O (some centres not stated)	> 200	129	
CCCCc1c2c(nc3c1CCCC3=O)C(=O)CCC2	> 5.37	> 5.37	
O=C1C=C(N2CCCC2)c2ncccc2C1=O			inactive
CC/C(N)=N\NC(=O)OC(C)(C)C	> 200	> 200	
CN1CCCCCCCC(=O)C(OC(=O)c2ccc([N+](=O)[O-])cc2)CCCCCCC1 (configuration not stated)	> 100	72.4	
O=S1(=O)CC2OC(c3ccccc3)OC2C1 (configuration not stated)	> 537	> 537	
SCc1ccc(CS)s1	> 741	> 741	
COc1ccc(C2CC(=O)c3cc(OC)ccc3O2)cc1 (configuration not stated)	> 200	> 200	
CSC(SC)=C(C#N)C(=O)Nc1ccc(C)cc1	> 200	3.63	
CN(C)CCNc1nc(-c2ccc3ccccc3c2)nc2nc[nH]c12	> 200	3.8	
CC1(C)CNC[C@@](C)(O)C(=O)NC(C)(C)CNC[C@](C)(O)C(=O)N1	186	> 200	

Structure (SMILES)	EC50 [µM]	IC50 [µM]	outcome
CC1=NC(=Cc2ccc(O)cc2)C(=O)N1n1c(-c2ccccc2)nc2ccccc2c1=O	> 200	21.9	
O=C(C#Cc1ccccc1)Nc1ccccc1CC(c1c[nH]c2ccccc12)c1c[nH]c2ccccc12	> 26.3	5.25	
Cc1ccc(N=C[N-]c2ccc(C)cc2)cc1.Cc1ccc(N=C[N-]c2ccc(C)cc2)cc1.O=C([O-])C(F)(F)F.O=C([O-])C(F)(F)F.[OH3+].[OH3+].[Rh+2].[Rh+2]	> 14.1	> 14.1	
O=S(=O)(O)c1cc(N=Nc2ccc(O)cc2)ccc1/C=C/c1ccc(N=Nc2ccc(O)cc2)cc1S(=O)(=O)O	> 50.1	45.7	
O=C(O)c1c(Br)c(Br)c(Br)c(Br)c1C1c2ccc(O)cc2Oc2cc(O)ccc21	2.95	174	
Cc1nc(N)sc1C(=O)/C=C/c1ccc(/C=C/C(=O)c2sc(NC(=O)CCCCCCCCC(=O)Nc3nc(C)c(C(=O)/C=C/c4ccc(/C=C/C(=O)c5sc(N)nc5C)cc4)s3)nc2C)cc1	> 251	162	
CN(/N=C\c1ccnc2ccccc12)c1ccccc1			inactive
CCc1cc(-c2cccc3ccccc23)c(C#N)c(=S)[nH]1	> 200	32.4	
CS(=O)(=O)OCCCSCCSCCCOS(C)(=O)=O	> 676	> 676	
NC1=Nc2ccccc2N(O)N1	> 158	> 158	
CN(C)CCN1C(=O)C2C3CCC(C)(O3)C2C1=O (configuration not stated)	> 200	> 200	
O=C(CSc1nnc(-c2ccc(N=Cc3ccc(Cl)cc3)cc2)o1)Nc1ccc(Cl)cc1Cl	> 34.7	25.1	
O=c1c2cccnc2ncn1CCCN1CCOCC1			inactive
COc1ccc(C2c3cc4c(cc3OC(NCCO)C2C)OCO4)cc1 (configuration not stated)	> 200	21.9	
CN(C)P(=O)(OP(=O)(N(C)C)N(C)C)N(C)C	> 200	> 200	
CCc1ccccc1NC(=O)CCc1n[nH]c(=S)o1	44.7	67.6	
Cc1cc(=O)oc2cc(O)c(O)cc12	> 200	27.5	
Cc1cccc(C2OC(=O)c3c2ccc2ccccc32)c1 (configuration not stated)			inactive
Cc1ccc(NC(=O)/C(Cc2cc(=O)oc3cc(O)ccc23)=N\NC(=O)C[N+](C)(C)C)cc1C	> 186	> 186	
CCOP(=S)(OCC)Oc1ccc(Sc2ccc(OP(=S)(OCC)OCC)cc2)cc1	> 200	30.9	
COc1ccc(C(=O)C(c2ccc(OC)cc2)C2(O)C(=O)Nc3c(C)cc(Cl)cc32)cc1 (configuration not stated)	> 79.4	> 79.4	
CCCCCCCCOC1C(O)C(O)C(O)C(O)C12CO2 (configuration not stated)	> 200	75.9	
CC(=O)OC1C=C2c3cc4c(c(O)c3C(=O)NC2[C@H](OC(C)=O)[C@@H]1OC(C)=O)OCO4 (some centres not stated)			inactive

Structure (SMILES)	EC50 [µM]	IC50 [µM]	outcome
CC(=O)C1=C(C)NC2C=CC=CN12 (configuration not stated)	> 1410	676	
COc1ccc(-c2oc3cc(OC(C)=O)cc(OC(C)=O)c3c(=O)c2OC)cc1			inactive
Cc1ccc(/C=N/Nc2nc3ccccc3s2)s1	> 200	67.6	
Cc1cc(SCC(=O)c2ccccc2[N+](=O)[O-])cc(C)[o+]1	> 200	77.6	
O=C1C2C(C(=O)N1c1ccccc1)C1c3ccccc3C2C2C(=O)N(c3ccccc3)C(=O)C21 (configuration not stated)			inactive
CC1(C)C(=O)C(O)=CC2C1=CCC1C2(C)C(=O)CC2(C)C(C(C)(O)C(=O)CC(O)C(C)(C)O)C(O)CC12C (configuration not stated)	> 20	1.32	
CN(C)c1nc(N)c(N=O)c(=O)[nH]1	> 200	178	
O=c1[nH]c2cc([N+](=O)[O-])ccc2nc1/C(=N/Nc1ccccc1)C(O)c1ccco1 (configuration not stated)	> 234	89.1	
C=CCNC(=O)/C=C\C(=O)O	> 1620	> 1620	
O=C(Cc1nc2ccc(C(=O)c3ccccc3)cc2[nH]c1=O)C(=O)Nc1nc2ccccc2[nH]1			inactive
CO/C(CO)=C1\CC2(OC1=O)[C@@H]1O[C@@H]1C1(O)[C@H]3C(=O)O[C@@H]([C@@H](OC)C21C)[C@@]3(O)C(C)C (some centres not stated)	> 407	> 407	
COc1cccc(/C=C\c2ccc(O)cc2)c1	> 200	4.27	
Cc1ccc(C)c2c1C/C(=C\c1ccccc1C(=O)O)C2=O	> 200	83.2	
Cc1c(O)ccc(N=O)c1O	> 200	123	
C[N+](C)(C)c1cc2c(nn1)Nc1ccccc1S2	> 200	10	
Clc1ccc(OCc2nnc3n2N=C(c2ccccc2)CS3)c(Cl)c1			inactive
C[C@H]1COC2=C1C(=O)C(=O)c1c2ccc2c1CCCC2(C)C	> 200	8.91	
COC1C=C(NCC2(CO)CCC2)NC(N)=N1 (configuration not stated)	> 200	> 200	
CC(=O)Oc1ccc2cc(-c3ccccc3OC(C)=O)c(=O)oc2c1	> 200	74.1	
Cc1ccc(C2=NNc3n[nH]c(=S)n3N2)cc1	> 75.9	> 75.9	
